According to patent US6025370A, “Quinolonecarboxylic acid derivatives or salts thereof” (Toyama Chemical Co., Ltd., priority 1996, dated 2000):
≈ marks a conversion by molar mass, not a printed value. Read-outs that look alike come from different tables or passages of the source.

How the values were obtained:
S. aureus FDA209P = assay: Antibacterial activity (MIC), S. aureus FDA209P; type: cell-based, Staphylococcus aureus
Method: (§1) According to the standard method of Japan Society of Chemotherapy [CHEMOTHERAPY, vol. 29, No. 1, pages 76-79 (1981)], a loopful of a cell suspension obtained by culturing in Mueller Hinton broth (mfd. by Difco) at 37° C. for 20 hours and adjusted to a concentration of 10^6 cells/plate (10^8 cells/ml) was inoculated into a Mueller Hinton agar medium (mfd. by Difco) containing the test compound, followed by incubation at 37° C. for 20 hours. […]

S. aureus F-137 = assay: Antibacterial activity (MIC), S. aureus F-137 (β-lactamase-producing); type: cell-based; conditions: 10^6 cells/plate, 37° C., 20 hours
Method: (§2) According to the standard method of Japan Society of Chemotherapy [CHEMOTHERAPY, vol. 29, No. 1, pages 76-79 (1981)], a loopful of a cell suspension obtained by culturing in Mueller Hinton broth (mfd. by Difco) at 37° C. for 20 hours and adjusted to a concentration of 10^6 cells/plate (10^8 cells/ml) was inoculated into a Mueller Hinton agar medium (mfd. by Difco) containing the test compound, followed by incubation at 37° C. for 20 hours. […] In Table 1, *1 to *4 denote the following strains:
2: β-lactamase-producing S. aureus

S. aureus F-597 = assay: Antibacterial activity (MIC), S. aureus F-597 (methicillin-resistant); type: cell-based; conditions: Mueller Hinton agar, 10^6 cells/plate, 37° C.
Method: as §2
3: methicillin-resistant S. aureus

E. coli NIHJ JC-2 = assay: Antibacterial activity (MIC), E. coli NIHJ JC-2; type: cell-based, Escherichia coli
Method: as §1

in vivo = conditions: mouse, intravenous, ddy strain mice, solution in 0.1 N aqueous sodium hydroxide, read-out: median lethal dose (LD50)
Method: Each test compound was intravenously administered to groups of 4 ddy strain mice (body weight: 30±1 g) each, whereby its acute toxicity was investigated. In this case, the compound was administered in the form of a solution prepared by dissolving the compound in a 0.1 N aqueous sodium hydroxide solution.

[1] = Staphylococcus aureus, S. aureus FDA209P, Mueller Hinton agar, 10^6 cells/plate, 37° C., 20 hours, read-out: MIC
[2] = Staphylococcus aureus, F137, Mueller Hinton agar, read-out: MIC
[3] = Escherichia coli, NIHJJC2, E. coli NIHJ JC-2, Mueller Hinton agar, 10^6 cells/plate, 37° C., 20 hours, read-out: MIC
[4] = Staphylococcus aureus, F597, 20 h, read-out: MIC

Question: With CC1NCc2cc(-c3ccc4c(=O)c(C(=O)O)cn(C5CC5)c4c3OC(F)F)ccc21 (single isomer, unassigned; (+)) [h, (+)-1-Cyclopropyl-8-difluoromethoxy-7-(1-methyliso-indolin-5-yl)-1,4-dihydro-4-oxoquinoline-3-carboxylic acid] as the compound, how does the MIC (S. aureus FDA209P; [1]) read?
Answer: ≤ 0.05 µg/mL

Question: And the MIC (S. aureus F-137; [2])?
Answer: ≤ 0.05 µg/mL

Question: And the MIC (S. aureus F-597; 20 hours)?
Answer: 0.2 µg/mL (≈ 0.469 µM)

Question: What about the MIC (E. coli NIHJ JC-2; [3]) of the same compound?
Answer: ≤ 0.05 µg/mL

Question: Which MIC (S. aureus FDA209P; Staphylococcus aureus, FDA209P, 20 h) does the source give for O=C(O)c1cn(C2CC2)c2cc(N3CCNCC3)c(F)cc2c1=O [j, 1-Cyclopropyl-6-fluoro-7-(1-piperazinyl)-1,4-dihydro-4-oxoquinoline-3-carboxylic acid, reference compound] here?
Answer: 0.2 µg/mL (≈ 0.604 µM)

Question: And the MIC (E. coli NIHJ JC-2; Escherichia coli, NIHJJC2, 20 h)?
Answer: ≤ 0.05 µg/mL

Question: Which MIC (S. aureus FDA209P; [1]) does the source give for O=C(O)c1cn(C2CC2)c2c(OC(F)F)c(-c3ccc4c(c3)CNC4)ccc2c1=O [e, 1-Cyclopropyl-8-difluoromethoxy-7-(isoindolin-5-yl)-1,4-dihydro-4-oxoquinoline-3-carboxylic acid] here?
Answer: ≤ 0.05 µg/mL

Question: And the MIC (S. aureus F-137; [2])?
Answer: ≤ 0.05 µg/mL

Question: What about the MIC (S. aureus F-597; [4]) of the same compound?
Answer: 0.1 µg/mL (≈ 0.242 µM)

Question: And the MIC (E. coli NIHJ JC-2; [3])?
Answer: ≤ 0.05 µg/mL

Question: What about the LD50 (in vivo) of the same compound?
Answer: ≥ 200 mg/kg

Question: With COc1c(-c2ccc3c(c2)CNC3)ccc2c(=O)c(C(=O)O)cn(C3CC3)c12 [c, 1-Cyclopropyl-7-(isoindolin-5-yl)-8-methoxy-1,4-dihydro-4-oxoquinoline-3-carboxylic acid] as the compound, how does the MIC (S. aureus FDA209P; [1]) read?
Answer: ≤ 0.05 µg/mL

Question: What about the MIC (S. aureus F-137; [2]) of the same compound?
Answer: ≤ 0.05 µg/mL

Question: What about the MIC (S. aureus F-597; [4]) of the same compound?
Answer: 0.1 µg/mL (≈ 0.266 µM)

Question: What about the MIC (E. coli NIHJ JC-2; [3]) of the same compound?
Answer: ≤ 0.05 µg/mL

Question: Which MIC (S. aureus FDA209P; [1]) does the source give for O=C(O)c1cn(C2CC2)c2c(OC(F)F)c(-c3cc(F)c4c(c3)CNC4)ccc2c1=O [f, 1-Cyclopropyl-8-difluoromethoxy-7-(7-fluoroiso-indolin-5-yl)-1,4-dihydro-4-oxoquinoline-3-carboxylic acid] here?
Answer: ≤ 0.05 µg/mL

Question: And the MIC (S. aureus F-137; [2])?
Answer: ≤ 0.05 µg/mL

Question: What about the MIC (S. aureus F-597; [4]) of the same compound?
Answer: ≤ 0.05 µg/mL

Question: And the MIC (E. coli NIHJ JC-2; [3])?
Answer: ≤ 0.05 µg/mL

Question: What does the source list for Cc1c(-c2cc(F)c3c(c2)CNC3)ccc2c(=O)c(C(=O)O)cn(C3CC3)c12 [b, 1-Cyclopropyl-7-(7-fluoroisoindolin-5-yl)-8-methyl-1,4-dihydro-4-oxoquinoline-3-carboxylic acid]?
Answer: MIC (S. aureus FDA209P; [1]): ≤ 0.05 µg/mL; MIC (S. aureus F-137; [2]): ≤ 0.05 µg/mL; MIC (S. aureus F-597; [4]): ≤ 0.05 µg/mL; MIC (E. coli NIHJ JC-2; [3]): ≤ 0.05 µg/mL

Question: Which MIC (S. aureus FDA209P; [1]) does the source give for Cc1c(-c2ccc3c(c2)CNC3)ccc2c(=O)c(C(=O)O)cn(C3CC3)c12 [a, 1-Cyclopropyl-7-(isoindolin-5-yl)-8-methyl-1,4-dihydro-4-oxoquinoline-3-carboxylic acid] here?
Answer: ≤ 0.05 µg/mL

Question: And the MIC (S. aureus F-137; [2])?
Answer: ≤ 0.05 µg/mL

Question: And the MIC (S. aureus F-597; [4])?
Answer: 0.1 µg/mL (≈ 0.277 µM)

Question: And the MIC (E. coli NIHJ JC-2; [3])?
Answer: ≤ 0.05 µg/mL

Question: With COc1c(-c2cc(F)c3c(c2)CNC3)ccc2c(=O)c(C(=O)O)cn(C3CC3)c12 [d, 1-Cyclopropyl-7-(7-fluoroisoindolin-5-yl)-8-methoxy-1,4-dihydro-4-oxoquinoline-3-carboxylic acid] as the compound, how does the MIC (S. aureus FDA209P; [1]) read?
Answer: ≤ 0.05 µg/mL

Question: And the MIC (S. aureus F-137; [2])?
Answer: ≤ 0.05 µg/mL

Question: What about the MIC (S. aureus F-597; [4]) of the same compound?
Answer: ≤ 0.05 µg/mL

Question: What about the MIC (E. coli NIHJ JC-2; [3]) of the same compound?
Answer: ≤ 0.05 µg/mL

Question: For CC1NCc2cc(-c3ccc4c(=O)c(C(=O)O)cn(C5CC5)c4c3OC(F)F)ccc21 (single isomer, unassigned; (-)) [i, (-)-1-Cyclopropyl-8-difluoromethoxy-7-(1-methyliso-indolin-5-yl)-1,4-dihydro-4-oxoquinoline-3-carboxylic acid], which MIC (S. aureus FDA209P; S. aureus FDA209P, Mueller Hinton agar, 10^6 cells/plate, 37° C., 20 hours) is on record?
Answer: ≤ 0.05 µg/mL

Question: What about the MIC (S. aureus F-137; Mueller Hinton agar) of the same compound?
Answer: ≤ 0.05 µg/mL

Question: What about the MIC (S. aureus F-597; 20 hours) of the same compound?
Answer: ≤ 0.05 µg/mL

Question: What about the MIC (E. coli NIHJ JC-2; E. coli NIHJ JC-2, Mueller Hinton agar, 10^6 cells/plate, 37° C., 20 hours) of the same compound?
Answer: ≤ 0.05 µg/mL

Question: What about the LD50 (in vivo) of the same compound?
Answer: ≥ 200 mg/kg

Question: With CC1NCc2cc(-c3ccc4c(=O)c(C(=O)O)cn(C5CC5)c4c3OC(F)F)ccc21 (racemic) [g, (±)-1-Cyclopropyl-8-difluoromethoxy-7-(1-methyliso-indolin-5-yl)-1,4-dihydro-4-oxoquinoline-3-carboxylic acid] as the compound, how does the MIC (S. aureus FDA209P; [1]) read?
Answer: ≤ 0.05 µg/mL

Question: What about the MIC (S. aureus F-137; [2]) of the same compound?
Answer: ≤ 0.05 µg/mL

Question: And the MIC (S. aureus F-597; [4])?
Answer: 0.1 µg/mL (≈ 0.235 µM)

Question: And the MIC (E. coli NIHJ JC-2; [3])?
Answer: ≤ 0.05 µg/mL

Question: And the LD50 (in vivo)?
Answer: ≥ 200 mg/kg
